Key:
[1] = Plasma lipids, lipoproteins and liver weight in normal rats versus fibrates (Example 8); type: in vivo, rat; conditions: once daily p.o. 7 days
Source text: The study design was based on the protocols used in Examples 1-3. Male Sprague-Dawley rats were provided normal chow ad libitum, both before and during the study period. […] Six rats were assigned to each treatment group (8 to the vehicle control). The study terminated on the day following administration of the seventh dose (day 8), with terminal blood collected for plasma lipid and lipoprotein analyses including LC-MS-based determination of lipid profiles, total and free cholesterol analyses, and lipoprotein cholesterol determinations (VLDL, LDL and HDL).
In order to elucidate the impact of romazarit on plasma lipoproteins, an ultraviolet (UV) size exclusion chromatography (SEC) system was used to separate plasma into broad lipoprotein-containing fractions that were based on relative retention times of human VLDL (very low density lipoprotein), LDL (low density lipoprotein), and HDL (high density lipoprotein) standards. These fractions were collected for cholesterol assays and the UV chromatograms were integrated to provide relative quantitation of the three lipoprotein types. It is important to note that since the UV absorbance measurement is not specific for lipoproteins and may also derive from other plasma constituents that co-elute with a particular lipoprotein, the relative quantitation data reported here is an approximation. The HDL fraction in particular may have included such co-eluting species, as evidenced by the relatively high integrated area values for this fraction.

[2] = LC-MS of plasma amino acids and thyroxine in rats (Example 2); type: in vivo, rat; conditions: 7 days
Experimental: (§1) In an initial experiment, two dose groups of six animals per group received either 5 or 50 mg/kg b.i.d., and a further group received vehicle only, as a control. A follow-up experiment was performed to explore dose-response and the selected doses were 15 and 50 mg/kg b.i.d., again plus control.
In both experiments, urine was collected from each animal by clean-catch after the final dose on day 7, and cerebrospinal fluid (CSF) and plasma were collected (terminal samples) on day 8. Aliquots of the CSF and plasma samples from each individual were submitted for LC-MS analyses of bioanalytes. Three different separation methods were run, with MS analyses in both positive and negative ion modes, to enable resolution of relative quantification of the bioanalytes.

[3] = Diabetic-prone (db/db) mouse model with high-fat diet (Example 7); type: in vivo; conditions: db/db mice, high-fat diet, 15, 50 and 100 mg/kg once daily
Experimental: The fibrate PPARα agonist fenofibrate (50 mg/kg) and the PPARγ agonist rosiglitazone (10 mg/kg) were used as reference controls for the study.

[4] = Body weight, food consumption and liver weight in diet-induced obese (DIO) rat model (Example 4); type: in vivo; conditions: for liver weight: rat, in vivo, po
Experimental: Male Sprague-Dawley rats were acclimated for 7 weeks on a high-fat diet before commencement of dose administration, and maintained on the same diet throughout the subsequent dosing period of 23 days. The high-fat diet (D12492 commercially available from Research Diets, Inc., New Brunswick, N.J.) was one in which at least 60% of calories are derived from fat.
Dose levels of gemfibrozil (50 mg/kg) and sibutramine (10 mg/kg) were selected based on published reports. All treatments were administered once daily by oral gavage in 10 ml vehicle. A vehicle-only control was also administered. Each treatment group consisted of 10 animals.
Body weight of each animal was measured weekly during the 7-week acclimation period and five times weekly during the 23-day dosing period. Food consumption was recorded twice weekly during the 7-week acclimation period and five times weekly during the 23-day dosing period.
Animals were sacrificed and liver weights measured at conclusion of the study.

rat PPARα = target: T1, rat PPARα (Rattus norvegicus, UniProt P37230); experiment: PPARRE-luciferase reporter in HepG2 cells transfected with rat PPARα; type: cell-based; conditions: retinoic acid 200 nM, read-out: EC50 activation of rat PPARα (rPPARα)
T1 construct: expressed in transfected cells; host or cells: HepG2
T1 sequence (P37230 1-468): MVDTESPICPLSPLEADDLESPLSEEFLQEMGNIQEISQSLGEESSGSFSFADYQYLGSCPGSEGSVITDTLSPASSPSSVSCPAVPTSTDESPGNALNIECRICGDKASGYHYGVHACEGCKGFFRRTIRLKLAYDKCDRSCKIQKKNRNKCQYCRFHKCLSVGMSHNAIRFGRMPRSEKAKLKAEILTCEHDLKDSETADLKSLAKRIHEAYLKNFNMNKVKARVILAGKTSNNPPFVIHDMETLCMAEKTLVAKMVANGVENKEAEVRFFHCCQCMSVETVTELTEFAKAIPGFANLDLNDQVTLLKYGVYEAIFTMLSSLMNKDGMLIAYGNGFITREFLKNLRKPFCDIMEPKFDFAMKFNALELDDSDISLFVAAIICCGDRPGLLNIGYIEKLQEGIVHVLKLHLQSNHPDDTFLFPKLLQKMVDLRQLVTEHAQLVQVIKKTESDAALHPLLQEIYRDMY
Experimental: For this study, a luciferase reporter plasmid containing 5 copies of a defined genetic regulatory PPARα response element (PPARRE) was utilized to detect romazarit-induced PPARRE activation in presence of a co-activator, retinoic acid. Specifically, HepG2 cells were transfected with expression vectors for either human or rat PPARα and the PPARRE-luciferase reporter plasmid. After 24 hours, the cells were trypsanized and subsequently seeded in 96-well clear-bottom plates at a density of 1.0×10^5 cells/ml.

[5] = Weight gain in rats over seven-day dosing (Example 3); type: in vivo, rat; conditions: 7 days
Experimental: as §1
Body weights of individual rats were recorded before and after the seven-day dosing period.

[6] = 50 mg/kg b.i.d. p.o., second experiment
[7] = 5 and 50 mg/kg b.i.d. p.o., initial experiment
[8] = DIO rats, 50 mg/kg once daily p.o.
[9] = DIO rats, 100 mg/kg once daily p.o.

Cc1nc(-c2ccc(Cl)cc2)oc1COC(C)(C)C(=O)O [romazarit, 2-[[2-(4-chlorophenyl)-4-methyl-5-oxazolyl]methoxy]-2-methylpropanoic acid]
potency in lowering plasma free fatty acids compared to the other compounds tested ([1]; 50 and 100 mg/kg): superior potency | plasma cholesterol esters ([1]; 50 and 100 mg/kg (romazarit also 10 mg/kg)): increased at least some fractions of plasma cholesterol esters | plasma free fatty acids ([1]; romazarit 10, 50 and 100 mg/kg): lowered plasma free fatty acids in a dose-dependent manner | plasma triglycerides ([1]; romazarit 10, 50 and 100 mg/kg): significantly lowered | plasma amino acids [2, 6]: generally similar to those for the same dose in the initial experiment | plasma thyroxine [2, 6]: generally similar to those for the same dose in the initial experiment | levels of common amino acids in plasma [2, 7]: small but significant lowering | plasma thyroxine (T4) [2, 7]: concomitant decrease | HDL [3]: did not significantly affect | total cholesterol [3]: did not significantly affect | total plasma triglycerides [3]: tendency likewise to reduce total plasma triglycerides at higher doses | weight gain [3]: None of the romazarit or fenofibrate treatments reduced weight gain | whole blood glucose levels [3]: no such effect was seen | food consumption ([4]; DIO rats, 15 mg/kg once daily p.o., throughout the dosing period): comparable to the vehicle control | day by which food consumption returned to levels comparable to the vehicle control [4, 8]: ≤ 15 days | day of minimum food consumption [4, 8]: 6 days | body weight loss by comparison with the vehicle control ([4]; DIO rats, 50 mg/kg once daily p.o., day 16): 10.3% | body weight loss by comparison with the vehicle control ([4]; DIO rats, 50 mg/kg once daily p.o., day 23): 4.6% | food consumption ([4]; DIO rats, 50 mg/kg once daily p.o., first 13 days of the dosing period): significantly less than the vehicle control | day by which food consumption returned to levels comparable to the vehicle control [4, 9]: ≤ 15 days | day of minimum food consumption [4, 9]: 8 days | body weight loss by comparison with the vehicle control (maximum) ([4]; DIO rats, 100 mg/kg once daily p.o., day 16): 16% | body weight loss by comparison with the vehicle control ([4]; DIO rats, 100 mg/kg once daily p.o., end of study (day 23)): 13.3% | food consumption ([4]; DIO rats, 100 mg/kg once daily p.o., first 13 days of the dosing period): significantly less than the vehicle control | liver weight ([4]; 15 mg/kg): No increase in liver weight | liver weight ([4]; 50 mg/kg): Increased liver weight | liver weight ([4]; 100 mg/kg): Increased liver weight | EC50 (rat PPARα): ~200 µM | weight gain ([5]; 15 mg/kg b.i.d. p.o., second experiment): generally similar to that seen in the initial experiment with the 5 mg/kg dose | weight gain ([5]; 50 mg/kg b.i.d. p.o., initial experiment): dramatic inhibition of weight gain | weight gain [5, 6]: not only inhibited weight gain, but even resulted in weight loss
